#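 96-well plates; 48 h exposure; 5 concentrations. Endpoints by linear interpolation between flanking doses. Not reached: highest tested concentration assigned. The concentration for 50% growth inhibition is given as GI50. At the TGI there is no net growth.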
# What was measured:
# Assay in all cases: NCI tumour cell line growth inhibition, 48 h
# NCI-H23 lung = test system: NCI-H23 lung
# MCF7 breast = test system: MCF7 breast
# RPMI-8226 leukemia = test system: RPMI-8226 leukemia
# M14 melanoma = test system: M14 melanoma
# SK-OV-3 ovarian = test system: SK-OV-3 ovarian
# SN12C renal = test system: SN12C renal
# HCT-116 colon = test system: HCT-116 colon
# A549 NSCLC = test system: A549 NSCLC
# SR leukemia = test system: SR leukemia
# HCT-15 colon = test system: HCT-15 colon
# LOX IMVI melanoma = test system: LOX IMVI melanoma
# HOP-62 NSCLC = test system: HOP-62 NSCLC
# UO-31 renal = test system: UO-31 renal
# SF-539 CNS = test system: SF-539 CNS
# SK-MEL-28 melanoma = test system: SK-MEL-28 melanoma
# COLO 205 colon = test system: COLO 205 colon
# PC-3 prostate = test system: PC-3 prostate
# IGROV1 ovarian = test system: IGROV1 ovarian
# T-47D breast = test system: T-47D breast
# OVCAR-5 ovarian = test system: OVCAR-5 ovarian
# UACC-62 melanoma = test system: UACC-62 melanoma
# U251 CNS = test system: U251 CNS
# 786-0 renal = test system: 786-0 renal
# MDA-MB-435 = test system: MDA-MB-435
# CAKI-1 renal = test system: CAKI-1 renal
# OVCAR-8 ovarian = test system: OVCAR-8 ovarian
# HL-60(TB) leukemia = test system: HL-60(TB) leukemia
# SK-MEL-5 melanoma = test system: SK-MEL-5 melanoma
# ACHN renal = test system: ACHN renal
# SK-MEL-2 melanoma = test system: SK-MEL-2 melanoma
# SNB-19 CNS = test system: SNB-19 CNS
# OVCAR-4 ovarian = test system: OVCAR-4 ovarian
# BT-549 breast = test system: BT-549 breast
# MDA-MB-231 breast = test system: MDA-MB-231 breast
# SNB-75 CNS = test system: SNB-75 CNS
# NCI-H522 lung = test system: NCI-H522 lung
# NCI/ADR-RES ovarian = test system: NCI/ADR-RES ovarian
# HOP-92 NSCLC = test system: HOP-92 NSCLC
# CCRF-CEM leukemia = test system: CCRF-CEM leukemia
# HT29 colon = test system: HT29 colon
# TK-10 renal = test system: TK-10 renal
# NCI-H226 lung = test system: NCI-H226 lung
# MOLT-4 leukemia = test system: MOLT-4 leukemia
# UACC-257 melanoma = test system: UACC-257 melanoma
# K-562 leukemia = test system: K-562 leukemia
# MALME-3M melanoma = test system: MALME-3M melanoma
# HCC-2998 colon = test system: HCC-2998 colon
# RXF 393 renal = test system: RXF 393 renal
# OVCAR-3 ovarian = test system: OVCAR-3 ovarian
# DU-145 prostate = test system: DU-145 prostate
# SF-268 CNS = test system: SF-268 CNS
# NCI-H460 lung = test system: NCI-H460 lung
# EKVX NSCLC = test system: EKVX NSCLC
# KM12 colon = test system: KM12 colon
# SF-295 CNS = test system: SF-295 CNS
# SW-620 colon = test system: SW-620 colon
compound,measurement,setting,value
O=C1/C(=C\c2ccc(F)cc2)CN(C(=O)c2ccccc2)C/C1=C\c1ccc(F)cc1,GI50,NCI-H23 lung,4.83 µM
same,TGI,NCI-H23 lung,21.8 µM
same,GI50,MCF7 breast,0.841 µM
same,TGI,MCF7 breast,4.31 µM
same,GI50,RPMI-8226 leukemia,0.296 µM
same,TGI,RPMI-8226 leukemia,1.17 µM
same,GI50,M14 melanoma,2.05 µM
same,TGI,M14 melanoma,4.65 µM
same,GI50,SK-OV-3 ovarian,5.95 µM
same,TGI,SK-OV-3 ovarian,19.5 µM
same,GI50,SN12C renal,3.02 µM
same,TGI,SN12C renal,12.1 µM
same,GI50,HCT-116 colon,0.428 µM
same,TGI,HCT-116 colon,1.71 µM
same,GI50,A549 NSCLC,4.92 µM
same,TGI,A549 NSCLC,71.9 µM
same,GI50,SR leukemia,0.484 µM
same,TGI,SR leukemia,26.8 µM
same,GI50,HCT-15 colon,1.5 µM
same,TGI,HCT-15 colon,3.53 µM
same,GI50,LOX IMVI melanoma,1.41 µM
same,TGI,LOX IMVI melanoma,3.18 µM
same,GI50,HOP-62 NSCLC,3.07 µM
same,TGI,HOP-62 NSCLC,8.5 µM
same,GI50,UO-31 renal,2.4 µM
same,TGI,UO-31 renal,10.6 µM
same,GI50,SF-539 CNS,2.56 µM
same,TGI,SF-539 CNS,7.58 µM
same,GI50,SK-MEL-28 melanoma,2.24 µM
same,TGI,SK-MEL-28 melanoma,5.88 µM
same,GI50,COLO 205 colon,3.15 µM
same,TGI,COLO 205 colon,10 µM
same,GI50,PC-3 prostate,2.08 µM
same,TGI,PC-3 prostate,6.59 µM
same,GI50,IGROV1 ovarian,3.33 µM
same,TGI,IGROV1 ovarian,10.7 µM
same,GI50,T-47D breast,6.22 µM
same,TGI,T-47D breast,71.4 µM
same,GI50,OVCAR-5 ovarian,2.64 µM
same,TGI,OVCAR-5 ovarian,11.7 µM
same,GI50,UACC-62 melanoma,1.84 µM
same,TGI,UACC-62 melanoma,4.83 µM
same,GI50,U251 CNS,1.65 µM
same,TGI,U251 CNS,3.76 µM
same,GI50,786-0 renal,1.83 µM
same,TGI,786-0 renal,4.25 µM
same,GI50,MDA-MB-435,2.11 µM
same,TGI,MDA-MB-435,5.65 µM
same,GI50,CAKI-1 renal,2.82 µM
same,TGI,CAKI-1 renal,66.2 µM
same,GI50,OVCAR-8 ovarian,2.82 µM
same,TGI,OVCAR-8 ovarian,17.5 µM
same,GI50,HL-60(TB) leukemia,3.56 µM
same,TGI,HL-60(TB) leukemia,> 100 µM
same,GI50,SK-MEL-5 melanoma,1.66 µM
same,TGI,SK-MEL-5 melanoma,3.8 µM
same,GI50,ACHN renal,1.75 µM
same,TGI,ACHN renal,3.77 µM
same,GI50,SK-MEL-2 melanoma,4.44 µM
same,TGI,SK-MEL-2 melanoma,19.5 µM
same,GI50,SNB-19 CNS,5.05 µM
same,TGI,SNB-19 CNS,20.8 µM
same,GI50,OVCAR-4 ovarian,1.84 µM
same,TGI,OVCAR-4 ovarian,18.1 µM
same,GI50,BT-549 breast,1.81 µM
same,TGI,BT-549 breast,3.43 µM
same,GI50,MDA-MB-231 breast,2.27 µM
same,TGI,MDA-MB-231 breast,6.39 µM
same,GI50,SNB-75 CNS,3.57 µM
same,TGI,SNB-75 CNS,42.6 µM
same,GI50,NCI-H522 lung,2.35 µM
same,TGI,NCI-H522 lung,7.73 µM
same,GI50,NCI/ADR-RES ovarian,4.14 µM
same,TGI,NCI/ADR-RES ovarian,> 100 µM
same,GI50,HOP-92 NSCLC,1.48 µM
same,TGI,HOP-92 NSCLC,9.1 µM
same,GI50,CCRF-CEM leukemia,1.05 µM
same,TGI,CCRF-CEM leukemia,> 100 µM
same,GI50,HT29 colon,1.67 µM
same,TGI,HT29 colon,4.34 µM
same,GI50,TK-10 renal,4.21 µM
same,TGI,TK-10 renal,17.3 µM
same,GI50,NCI-H226 lung,26.6 µM
same,TGI,NCI-H226 lung,> 100 µM
same,GI50,MOLT-4 leukemia,2.56 µM
same,TGI,MOLT-4 leukemia,72.5 µM
same,GI50,UACC-257 melanoma,2.41 µM
same,TGI,UACC-257 melanoma,8.52 µM
same,GI50,K-562 leukemia,0.983 µM
same,TGI,K-562 leukemia,> 100 µM
same,GI50,MALME-3M melanoma,3.66 µM
same,TGI,MALME-3M melanoma,12.2 µM
same,GI50,HCC-2998 colon,2.62 µM
same,TGI,HCC-2998 colon,6.98 µM
same,GI50,RXF 393 renal,1.99 µM
same,TGI,RXF 393 renal,4.85 µM
N=C(N)c1ccc(-c2ccc(-c3ccc(Cl)cc3Cl)o2)nc1,GI50,SK-OV-3 ovarian,1.77 µM
same,TGI,SK-OV-3 ovarian,3.52 µM
same,GI50,SR leukemia,0.311 µM
same,TGI,SR leukemia,1.43 µM
same,GI50,UO-31 renal,1.56 µM
same,TGI,UO-31 renal,2.92 µM
same,GI50,OVCAR-5 ovarian,1.64 µM
same,TGI,OVCAR-5 ovarian,3.05 µM
same,GI50,OVCAR-3 ovarian,1.81 µM
same,TGI,OVCAR-3 ovarian,3.23 µM
same,GI50,MDA-MB-435,1.72 µM
same,TGI,MDA-MB-435,3.1 µM
same,GI50,CAKI-1 renal,1.52 µM
same,TGI,CAKI-1 renal,2.96 µM
same,GI50,MDA-MB-231 breast,1.64 µM
same,TGI,MDA-MB-231 breast,3.16 µM
same,GI50,DU-145 prostate,1.78 µM
same,TGI,DU-145 prostate,3.21 µM
same,GI50,SNB-75 CNS,1.46 µM
same,TGI,SNB-75 CNS,2.78 µM
same,GI50,HOP-92 NSCLC,1.44 µM
same,TGI,HOP-92 NSCLC,2.9 µM
O=C(Cn1cc(-c2ccccc2)nn1)NC1CCCCC1,TGI,NCI-H23 lung,> 100 µM
same,TGI,MCF7 breast,> 100 µM
same,TGI,RPMI-8226 leukemia,> 100 µM
same,TGI,M14 melanoma,> 100 µM
same,TGI,SN12C renal,> 100 µM
same,TGI,HCT-116 colon,> 100 µM
same,TGI,A549 NSCLC,> 100 µM
same,TGI,SR leukemia,> 100 µM
same,TGI,HCT-15 colon,> 100 µM
same,TGI,LOX IMVI melanoma,> 100 µM
same,TGI,HOP-62 NSCLC,> 100 µM
same,TGI,SF-539 CNS,> 100 µM
same,TGI,SK-MEL-28 melanoma,> 100 µM
same,TGI,COLO 205 colon,> 100 µM
same,TGI,SF-268 CNS,> 100 µM
same,TGI,PC-3 prostate,> 100 µM
same,TGI,IGROV1 ovarian,> 100 µM
same,TGI,OVCAR-5 ovarian,> 100 µM
same,TGI,U251 CNS,> 100 µM
same,TGI,786-0 renal,> 100 µM
same,TGI,NCI-H460 lung,> 100 µM
same,TGI,MDA-MB-435,> 100 µM
same,TGI,CAKI-1 renal,> 100 µM
same,TGI,OVCAR-8 ovarian,> 100 µM
same,TGI,HL-60(TB) leukemia,> 100 µM
same,TGI,SK-MEL-5 melanoma,> 100 µM
same,TGI,ACHN renal,> 100 µM
same,TGI,SK-MEL-2 melanoma,> 100 µM
same,TGI,SNB-19 CNS,> 100 µM
same,TGI,OVCAR-4 ovarian,> 100 µM
same,TGI,BT-549 breast,> 100 µM
same,TGI,MDA-MB-231 breast,> 100 µM
same,TGI,DU-145 prostate,> 100 µM
same,TGI,SNB-75 CNS,> 100 µM
same,TGI,EKVX NSCLC,> 100 µM
same,TGI,NCI-H522 lung,> 100 µM
same,TGI,NCI/ADR-RES ovarian,> 100 µM
same,TGI,HOP-92 NSCLC,> 100 µM
same,TGI,CCRF-CEM leukemia,> 100 µM
same,TGI,HT29 colon,> 100 µM
same,TGI,TK-10 renal,> 100 µM
same,TGI,KM12 colon,> 100 µM
same,TGI,NCI-H226 lung,> 100 µM
same,TGI,MOLT-4 leukemia,> 100 µM
same,TGI,UACC-257 melanoma,> 100 µM
same,TGI,K-562 leukemia,> 100 µM
same,TGI,MALME-3M melanoma,> 100 µM
same,TGI,SF-295 CNS,> 100 µM
same,TGI,SW-620 colon,> 100 µM
same,TGI,HCC-2998 colon,> 100 µM

# From PubChem BioAssay (NCI)
